What was measured:
Type in all cases: cell-based, rat
[1] = system: primary cortical neurons; assay: Viability of normal primary cortical neurons after administration; details: 100 μM; for Cell survival rate of primary neurons after administration: normal neurons, control 1.00, mean ± SE
[2] = system: primary cortical neurons (OGD model); assay: Cell viability of primary cortical neurons in oxygen glucose deprivation; details: for Neuroprotective activity of BA compounds in OGD model, in words: text SAR; for Improvement of survival rate of neuron (OGD 12 h), in words: P < 0.05 vs model; for Sample in 100 μM: cytotoxic at this concentration: footnote c; for Cell survival rate of primary neurons (OGD 12 h), Edaravone: positive drug 100 μM
[3] = system: primary cortical neurons (OGD model); assay: Morphology of OGD neurons under inverted microscope; details: OGD 12 h

For `CC1(C)C=Cc2cc(NC(=O)/C=C/c3ccco3)ccc2O1` [BA-10, (E)-N-(2,2-Dimethyl-2H-1-benzopyran-6-yl)-3-(furan-2-yl)acrylamide], the “Cell survival rate of primary neurons after administration” value [1] was 0.84 ± 0.026 % and the “Neuroprotective activity of BA compounds in OGD model, in words” value (shortened to “Neuroprotective activity of BA compounds”) ([2]; OGD 12 h) was “lost neuroprotective effect”.

`CC1(C)C=Cc2cc(NC(=O)/C=C/c3cccc4ccccc34)ccc2O1` [BA-08, (E)-N-(2,2-Dimethyl-2H-1-benzopyran-6-yl)-3-(naphthalen-1-yl)acrylamide] was tested, and the “Cell survival rate of primary neurons after administration” value [1] was 0.73 ± 0.025 %, the “Improvement of survival rate of neuron (OGD 12 h), in words” value (“Improvement of survival rate of neuron” below) ([2]; 1 μM) was “significantly improve the survival rate of neuron” and the “Sample in 100 μM: cytotoxic at this concentration” value (“Sample in 100 μM: cytotoxic” below) ([2]; BA compounds) was “— ^c”.

In the case of `CC1(C)C=Cc2cc(/C=C/C(=O)Oc3ccccc3)ccc2O1` [BN-05, (E)-3-(2,2-Dimethyl-2H-1-benzopyran-6-yl)-acrylate-phenyl ester], the “Cell survival rate of primary neurons after administration” value [1] is reported as 0.86 ± 0.023 %.

`CC1(C)C=Cc2cc(NC(=O)/C=C/c3ccc4c(c3)OCO4)ccc2O1` [BA-05, (E)-N-(2,2-Dimethyl-2H-1-benzopyran-6-yl)-3-(1,3-benzodioxole-5-yl)acrylamide] was tested, and the “Cell survival rate of primary neurons after administration” value [1] was 0.85 ± 0.037 %.

With `CC1(C)C=Cc2cc(NC(=O)/C=C/c3cccnc3)ccc2O1` [BA-09, (E)-N-(2,2-Dimethyl-2H-1-benzopyran-6-yl)-3-(pyridin-3-yl)acrylamide] the “Cell survival rate of primary neurons after administration” value [1] was 0.49 ± 0.047 %, the “Improvement of survival rate of neuron” value ([2]; 1 μM) was “significantly improve the survival rate of neuron” and the “Sample in 100 μM: cytotoxic” value ([2]; BA compounds) was “— ^c”. For the same compound, the “Neuroprotective activity of BA compounds” value ([2]; OGD 12 h) was “maintained the same biological activity”.

In the case of `COc1ccc(NC(=O)/C=C/c2ccc3c(c2)C=CC(C)(C)O3)cc1` [BN-02, (E)-3-(2,2-Dimethyl-2H-1-benzopyran-6-yl)-N-(4-methoxyphenyl)acrylamide], the “Cell survival rate of primary neurons after administration” value [1] is reported as 0.93 ± 0.0080%.

`COc1ccccc1NC(=O)/C=C/c1ccc2c(c1)C=CC(C)(C)O2` [BN-04, (E)-3-(2,2-Dimethyl-2H-1-benzopyran-6-yl)-N-(2-methoxyphenyl)acrylamide] was tested, and the “Cell survival rate of primary neurons after administration” value [1] was 0.88 ± 0.038%.

For `COc1ccc(N2CCN(C(=O)/C=C/c3ccc4c(c3)C=CC(C)(C)O4)CC2)cc1` [BN-06, (E)-3-(2,2-Dimethyl-2H-1-benzopyran-6-yl)-1-(4-(4-methoxyphenyl)piperazin-1-yl)prop-2-en-1-one], the “Cell survival rate of primary neurons after administration” value [1] was 0.91 ± 0.028%.

`COc1cc(/C=C/C(=O)Nc2ccc3c(c2)C=CC(C)(C)O3)ccc1O` [BA-02, (E)-N-(2,2-Dimethyl-2H-1-benzopyran-6-yl)-3-(4-hydroxy-3-methoxyphenyl)acrylamide] was tested, and the “Cytotoxicity to normal neurons (reduced cell survival rate), in words” value [1] was “cytotoxic”, the “Cell survival rate of primary neurons after administration” value [1] was 0.76 ± 0.025 % and the “Sample in 100 μM: cytotoxic” value ([2]; BA compounds) was “— ^c”.

“5-methyl-2-phenyl-1,2-dihydropyrazol-3-one [Edaravone, reference compound]” was tested, and the “Cell survival rate of primary neurons (OGD 12 h), Edaravone” value ([2]; BA table, model 0.49 ± 0.094, mean ± SE) was 0.54 ± 0.0069 % and the “Cell survival rate of primary neurons (OGD 12 h), Edaravone” value ([2]; BN table, model 0.41 ± 0.014, mean ± SE) was 0.56 ± 0.015 %.

For `COc1cccc(NC(=O)/C=C/c2ccc3c(c2)C=CC(C)(C)O3)c1` [BN-03, (E)-3-(2,2-Dimethyl-2H-1-benzopyran-6-yl)-N-(3-methoxyphenyl)acrylamide], the “Cell survival rate of primary neurons after administration” value [1] was 0.89 ± 0.02%.

“3-(2,2-Dimethyl-2H-1-benzopyran-6-yl)-N-(3-methoxyphenyl)-3-((3-methoxyphenyl)amino)propenamide [BN-10]” was tested, and the “Cell survival rate of primary neurons after administration” value [1] was 0.81 ± 0.058 %, the “Cell survival rate of primary neurons (OGD 12 h), Sample in 1 μM” value ([2]; BN compounds, 1 μM, model 0.41 ± 0.014, control 1.00, mean ± SE) was 0.81 ± 0.0090 % and the “Cell survival rate of primary neurons (OGD 12 h), Sample in 30 μM” value ([2]; BN compounds, 30 μM, model 0.41 ± 0.014, control 1.00, mean ± SE) was 0.77 ± 0.0035 %. For the same compound, the “Sample in 100 μM: cytotoxic” value ([2]; BN compounds) was “— ^c”.

For `CC1(C)C=Cc2cc(NC(=O)/C=C/c3cccs3)ccc2O1` [BA-11, (E)-N-(2,2-Dimethyl-2H-1-benzopyran-6-yl)-3-(thiophen-2-yl)acrylamide], the “Cell survival rate of primary neurons after administration” value [1] was 0.89 ± 0.054%, the “Improvement of survival rate of neuron” value ([2]; 1 μM) was “significantly improve the survival rate of neuron” and the “Neuroprotective activity of BA compounds” value ([2]; OGD 12 h) was “maintained the same biological activity”.

`CC1(C)C=Cc2cc(C(CC(=O)Nc3ccccc3)Nc3ccccc3)ccc2O1` (stereo not drawn) [BN-08, 3-(2,2-Dimethyl-2H-1-benzopyran-6-yl)-N-phenyl-3-(phenylamino)propanamide] was tested, and the “Cell survival rate of primary neurons after administration” value [1] was 0.99 ± 0.019%.

`COc1ccc(NC(=O)CC(Nc2ccc(OC)cc2)c2ccc3c(c2)C=CC(C)(C)O3)cc1` (stereo not drawn) [BN-09, 3-(2,2-Dimethyl-2H-1-benzopyran-6-yl)-N-(4-methoxyphenyl)-3-((4-methoxyphenyl)amino)propanamide] was tested, and the “Cell survival rate of primary neurons after administration” value [1] was 0.80 ± 0.047 % and the “Sample in 100 μM: cytotoxic” value ([2]; BN compounds) was “— ^c”.

With `CC1(C)C=Cc2cc(/C=C/C(=O)Nc3ccccc3)ccc2O1` [BN-01, (E)-3-(2,2-Dimethyl-2H-1-benzopyran-6-yl)-N-phenylacrylamide] the “Cell survival rate of primary neurons after administration” value [1] was 0.85 ± 0.038 %.

In the case of `COc1ccc(/C=C/C(=O)Nc2ccc3c(c2)C=CC(C)(C)O3)cc1` [BA-06, (E)-N-(2,2-Dimethyl-2H-1-benzopyran-6-yl)-3-(4-methoxyphenyl)acrylamide], the “Cell survival rate of primary neurons after administration” value [1] is reported as 0.86 ± 0.018 %.

`CC1(C)C=Cc2cc(/C=C/C(=O)N3CCN(c4ccc(O)cc4)CC3)ccc2O1` [BN-07, (E)-3-(2,2-Dimethyl-2H-1-benzopyran-6-yl)-1-(4-(4-hydroxyphenyl)piperazin-1-yl)prop-2-en-1-one] was tested, and the “Cell survival rate of primary neurons after administration” value [1] was 0.96 ± 0.0063%, the “Neuroprotective effect of BN compounds on survival of OGD neurons, in words” value ([2]; OGD 12 h, compared with model group / edaravone) was “good efficacy in neurons of OGD model” and the “Morphology of neurons induced by OGD, in words” value [3] was “significantly improved the morphology of neurons”.

In the case of `COc1ccc(/C=C/C(=O)Nc2ccc3c(c2)C=CC(C)(C)O3)cc1O` [BA-03, (E)-N-(2,2-Dimethyl-2H-1-benzopyran-6-yl)-3-(3-hydroxy-4-methoxyphenyl)acrylamide], the “Cytotoxicity to normal neurons (reduced cell survival rate), in words” value [1] is reported as “cytotoxic”, the “Cell survival rate of primary neurons after administration” value [1] is reported as 0.77 ± 0.012 % and the “Improvement of survival rate of neuron” value ([2]; 1 μM) is reported as “significantly improve the survival rate of neuron”. For the same compound, the “Sample in 100 μM: cytotoxic” value ([2]; BA compounds) was “— ^c”.

`CC1(C)C=Cc2cc(NC(=O)/C=C/c3ccc(O)cc3)ccc2O1` [BA-01, (E)-N-(2,2-Dimethyl-2H-1-benzopyran-6-yl)-3-(4-hydroxyphenyl)acrylamide] was tested, and the “Cytotoxicity to normal neurons (reduced cell survival rate), in words” value [1] was “cytotoxic”, the “Cell survival rate of primary neurons after administration” value [1] was 0.75 ± 0.021 % and the “Sample in 100 μM: cytotoxic” value ([2]; BA compounds) was “— ^c”. For the same compound, the “Neuroprotective activity of BA compounds” value ([2]; OGD 12 h) was “the activity was decreased or disappeared”.

`CC1(C)C=Cc2cc(NC(=O)/C=C/c3ccccc3)ccc2O1` [BA-07, (E)-N-(2,2-Dimethyl-2H-1-benzopyran-6-yl)-3-phenylacrylamide] was tested, and the “Cytotoxicity to normal neurons (reduced cell survival rate), in words” value [1] was “cytotoxic”, the “Cell survival rate of primary neurons after administration” value [1] was 0.78 ± 0.046 % and the “Improvement of survival rate of neuron” value ([2]; 1 μM) was “significantly improve the survival rate of neuron”. For the same compound, the “Sample in 100 μM: cytotoxic” value ([2]; BA compounds) was “— ^c”.

For `CC1(C)C=Cc2cc(NC(=O)/C=C/c3ccc(O)c(O)c3)ccc2O1` [BA-04, (E)-N-(2,2-Dimethyl-2H-1-benzopyran-6-yl)-3-(3,4-dihydroxyphenyl)acrylamide], the “Cytotoxicity to normal neurons (reduced cell survival rate), in words” value [1] was “cytotoxic”, the “Cell survival rate of primary neurons after administration” value [1] was 0.56 ± 0.014 % and the “Sample in 100 μM: cytotoxic” value ([2]; BA compounds) was “— ^c”. The “Neuroprotective activity of BA compounds” value ([2]; OGD 12 h) was “the activity was decreased or disappeared”.
